Columns and labels:
[1] = system: A (CFX aptamer A) (RNA, aptamer) GGGAGACGCAACAGACUAGGUUGUGACUGCUUAGGCAGUUGUGGACGGCUAAGCCCACCAGAGGUCCGUAACUAGUCGCGUCAC; assay: stopped-flow fluorescence, global fit; conditions: K+ 125 mM, Mg2+ 5 mM; 40 mM HEPES, pH 7.4; association rate, reversible two-step model 4; k-1 1.6±0.2, k2 4±0.2, k-2 2.3±0.2 s^-1
[2] = system: preRS (RNA, aptamer) GGGAGACGCAACUGAAUGAACAUAAGUGAACGCGACUCUAUCUCCCUAAACUAGGAGUCAUAUAGCGGCACGGAGUUACACGAUCCGUAACUAGUCGCGUCAC; assay: stopped-flow fluorescence, global fit; conditions: K+ 125 mM, Mg2+ 5 mM; 40 mM HEPES, pH 7.4; association rate, two-step model 5; k-1 5.4±0.4, k2 12.1±0.7 s^-1
[3] = system: RS (RNA, aptamer) GGGAGACGCACCUGAAUCAACAUACGUGAACGCGACUCUAUCUCCCCAAAUUAGGCGUCAGAUAGCGGCACGGAGUUACACGAUCCGUAACUAGUCGCGUCAC; assay: stopped-flow fluorescence, global fit; conditions: K+ 125 mM, Mg2+ 5 mM; 40 mM HEPES, pH 7.4; association rate, two-step model 5; k-1 2.9±0.7, k2 23±1 s^-1
[4] = system: A (CFX aptamer A) (RNA, aptamer) GGGAGACGCAACAGACUAGGUUGUGACUGCUUAGGCAGUUGUGGACGGCUAAGCCCACCAGAGGUCCGUAACUAGUCGCGUCAC; assay: fluorescence titration (ligand quenching); conditions: K+ 125 mM, Mg2+ 10 mM; 40 mM HEPES, pH 7.4, 25 °C; 50 nM CFX; Mg2+ series

k1 [1]: 10 ± 0.2 µM/s | k1 [2]: 4.31 ± 0.06 µM/s | k1 [3]: 7.62 ± 0.11 µM/s | KD [4]: ~ 13 nM
SMILES: O=C(O)c1cn(C2CC2)c2cc(N3CCNCC3)c(F)cc2c1=O
